Our source for the Kd values is article PMC12720125 (Redox Biology, 2025).

The target of experiment [1] is T1, lymphoid-specific helicase (LSH) (Homo sapiens, UniProt Q9NRZ9).
T1 sequence (Q9NRZ9 1-838): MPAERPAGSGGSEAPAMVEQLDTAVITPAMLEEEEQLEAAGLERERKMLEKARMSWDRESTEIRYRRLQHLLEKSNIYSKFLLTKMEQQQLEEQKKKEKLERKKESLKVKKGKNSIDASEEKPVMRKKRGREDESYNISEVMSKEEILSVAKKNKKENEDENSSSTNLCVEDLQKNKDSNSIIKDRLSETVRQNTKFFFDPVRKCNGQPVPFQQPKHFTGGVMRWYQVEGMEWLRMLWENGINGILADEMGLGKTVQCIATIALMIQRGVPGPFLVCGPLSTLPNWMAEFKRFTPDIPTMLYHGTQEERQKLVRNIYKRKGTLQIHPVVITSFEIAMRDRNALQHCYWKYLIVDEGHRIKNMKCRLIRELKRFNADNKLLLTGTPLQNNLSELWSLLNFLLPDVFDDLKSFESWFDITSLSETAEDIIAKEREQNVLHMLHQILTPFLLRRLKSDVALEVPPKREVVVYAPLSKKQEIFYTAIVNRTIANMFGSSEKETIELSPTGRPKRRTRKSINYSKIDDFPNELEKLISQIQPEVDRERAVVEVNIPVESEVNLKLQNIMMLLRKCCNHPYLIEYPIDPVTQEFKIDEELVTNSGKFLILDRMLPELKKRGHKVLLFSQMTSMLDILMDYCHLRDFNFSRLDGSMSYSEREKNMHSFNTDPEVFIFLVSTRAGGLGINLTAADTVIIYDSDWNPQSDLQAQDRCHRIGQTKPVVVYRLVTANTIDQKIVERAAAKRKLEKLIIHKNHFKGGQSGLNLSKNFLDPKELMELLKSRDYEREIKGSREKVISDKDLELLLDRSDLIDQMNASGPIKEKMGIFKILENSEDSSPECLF
As to the kind of experiment: KD determination, SPR. Format: binding.

Experiment [2] addresses T1, lymphoid-specific helicase (LSH). As to the kind of experiment: SPR. Type of experiment: binding.

On to `C[C@@H]1CC[C@H]2[C@@H](C)C(=O)O[C@@H]3O[C@@]4(C)CC[C@@H]1[C@]32OO4` [artemisinin], for which the Kd in experiment [1] was found to be 32.2 µM. In experiment [2], `C=C1C(=O)O[C@@H]2O[C@@]3(C)CC[C@H]4[C@H](C)CC[C@@H]1[C@@]24OO3` [ATT, artemisitene] came in with a Kd of 6.18 µM. That is a single-digit micromolar value.
